pIC50: −log10 of the molar value. Like-named read-outs stand apart in the source and are kept apart here.
Experiments:
HIF-2α = molecular target: T1, HIF-2α (Homo sapiens, UniProt Q99814); assay: HIF-2α Luciferase Reporter Assay; assay type: cell-based
T1 construct: endogenous in cells; host or cells: 786-O cells (ATCC CRL-1932) stably carrying the Cignal Lenti HIF Luc Reporter
Description: Stable cell lines were generated by transducing 786-O cells (ATCC, CRL-1932) with Cignal Lenti HIF Luc Reporter lentivirus (CLS-007L, Qiagen) according to the manufacturer's guidelines. In brief, 0.3×10^6 786-0 cells were transduced with lentivirus at a Multiplicity of Infection (MOI) of 25 for 24 hours. After transduction, cells were replenished with fresh RPMI 1640 Medium (Cat. No. 11875085, Thermo Fisher,) supplemented with 10% FBS (Cat. No. A3160502, Gibco), 2 mM GlutaMax (Cat. No. 35050-061, Invitrogen) and 100 units of penicillin and 100 μg of streptomycin/mL (Cat. No 15070063, Thermo Fisher) for another 24 hours. Antibiotic selection was performed in cell media containing 4 μg/mL of Puromycin. After 7 days of antibiotic selection, stable pools of surviving cells were expanded and used in a luciferase reporter assay.
On day one, 20 uL of HIF-Luc-786-0 cells in OptiMem (Cat. No. 31985088, Thermo Fisher) were seeded into each well of a 384 well white opaque plate (Corning 3570) and incubated at 37° C. and 5% CO2. Twenty microliters of 2× test compounds in OptiMem were added to cells after 4 hours of incubation. Final assay conditions comprised 20,000 cells per well in 1% DMSO with test compound concentrations ranging from 50 uM to 0 uM. After 20 hours incubation at 37° C. and 5% CO2, luciferase activity was determined using ONE-Glo Luciferase Assay Reagent (E6110, Promega) following the manufacture's recommended procedure. Briefly, 40 uL of ONE-Glo luciferase reagents were added to each well and luciferase signals were measured using an Envision 2102 Multilabel Reader. Percentage maximum activity in each test well was calculated based on DMSO (maximum activity) and no cell control wells (baseline activity). The IC50 values of the test compounds were determined from compound dose response curves fitted using a standard four parameter fit equation.

[1] = molecular target: T2, Histidine tagged HIF-2α protein containing PAS-B domain (240-350) (Homo sapiens, UniProt Q99814); assay: HIF-2α Scintillation Proximity Assay (SPA); assay type: binding
T2 construct: Histidine tagged HIF-2α protein containing PAS-B domain (240-350) was prepared and purified in house; made in house
Description: Tritium labeled compound N-(3-chlorophenyl)-4-nitro-2,1,3-benzoxadiazol-5-amine was obtained from American Radiolabeled Chemicals Inc. and copper chelate PVT SPA beads were from PerkinElmer (Cat #RPNQ0095). Histidine tagged HIF-2α protein containing PAS-B domain (240-350) was prepared and purified in house.
Compounds solubilized in DMSO were dispensed into a white 384-well polystyrene non-binding flat clear bottom plate (Greiner Bio-One, Cat #781903) using an HP D300 dispenser. Ten microliters of HIS-tagged HIF-2α protein in buffer (25 mM Tris-HCl, pH 7.4, 150 mM NaCl, 0.15% BSA and 0.001% Tween 20) was added to the compound wells and allowed to incubate for 1 hour at room temperature. Ten microliters of SPA bead mix were added to the wells and incubated for an additional 45 minutes, followed by 10 ul of ^3H-tracer solution. Final assay conditions comprised 50 nM HIF-2α protein, 25 nM radiolabeled tracer and 3 ug beads per well with compounds in 2% DMSO. The plate was read using a MicroBeta Microplate Counter (PerkinElmer) for luminescence detection. The IC50 values of the test compounds were determined from compound dose response curves fitted using a standard four parameter fit equation and are reported in Table 1.

[2] = HIF-Luc-786-0 cells, 20 hours incubation, luciferase activity, read-out: HIF-2α Luciferase Assay
[3] = 50 nM HIF-2α protein, 25 nM radiolabeled tracer, read-out: HIF-2α Scintillation Proximity Assay

T1 sequence (Q99814 whole entry): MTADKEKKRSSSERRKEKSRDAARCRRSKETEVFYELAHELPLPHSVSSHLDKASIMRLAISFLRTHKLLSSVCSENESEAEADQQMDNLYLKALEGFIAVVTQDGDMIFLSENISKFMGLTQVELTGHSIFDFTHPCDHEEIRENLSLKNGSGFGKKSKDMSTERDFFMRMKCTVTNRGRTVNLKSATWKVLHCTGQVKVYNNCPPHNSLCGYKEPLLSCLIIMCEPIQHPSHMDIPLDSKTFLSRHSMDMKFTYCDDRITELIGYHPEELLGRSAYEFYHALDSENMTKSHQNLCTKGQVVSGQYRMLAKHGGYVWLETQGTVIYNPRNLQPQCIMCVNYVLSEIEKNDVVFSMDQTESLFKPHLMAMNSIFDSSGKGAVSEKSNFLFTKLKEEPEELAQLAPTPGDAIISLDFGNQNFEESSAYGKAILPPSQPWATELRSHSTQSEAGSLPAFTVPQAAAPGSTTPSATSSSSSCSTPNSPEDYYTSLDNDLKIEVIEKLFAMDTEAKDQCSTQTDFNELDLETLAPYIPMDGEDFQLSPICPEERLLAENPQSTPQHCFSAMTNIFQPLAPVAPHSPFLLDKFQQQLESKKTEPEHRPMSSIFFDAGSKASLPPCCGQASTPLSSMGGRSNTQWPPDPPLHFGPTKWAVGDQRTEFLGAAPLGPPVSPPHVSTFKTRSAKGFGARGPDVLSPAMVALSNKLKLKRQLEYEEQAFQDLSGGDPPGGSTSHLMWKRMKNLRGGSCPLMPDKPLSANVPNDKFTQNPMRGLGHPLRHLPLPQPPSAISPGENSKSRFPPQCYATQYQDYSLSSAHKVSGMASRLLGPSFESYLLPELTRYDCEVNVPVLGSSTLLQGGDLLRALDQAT
T2 sequence (Q99814 240-350): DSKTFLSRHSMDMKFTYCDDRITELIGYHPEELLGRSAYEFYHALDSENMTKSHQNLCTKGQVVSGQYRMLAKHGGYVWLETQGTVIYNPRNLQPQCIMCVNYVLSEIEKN

Compound	pIC50 (HIF-2α; [2])	pIC50 [1, 3]	pIC50 (HIF-2α)	pIC50 [1]
N#Cc1cc(F)cc(Oc2c(F)cc(S(=O)(=O)C(F)(F)F)c3[nH]ncc23)c1 [Example 64, 3-Fluoro-5-[(5-fluoro-7-trifluoromethanesulfonyl-1H-indazol-4-yl)oxy]benzonitrile]	< 5.00	5.00 to 6.00	–	–
O=S(=O)(c1ccc(Oc2cncc(Cl)c2)c2cn[nH]c12)C(F)(F)F [Example 23, 4-[(5-Chloropyridin-3-yl)oxy]-7-trifluoromethanesulfonyl-1H-indazole]	5.00 to 6.00	5.00 to 6.00	–	–
O=S(=O)(c1ccc(Oc2cccc(F)c2)c2cn[nH]c12)C(F)(F)F [Example 31, 4-(3-Fluorophenoxy)-7-(trifluoromethylsulfonyl)-1H-indazole]	5.00 to 6.00	5.00 to 6.00	–	–
O=S(=O)(c1ccc(Oc2cc(F)cc(F)c2)c2cn[nH]c12)C(F)(F)F [Example 25, 4-(3,5-Difluorophenoxy)-7-trifluoromethanesulfonyl-1H-indazole]	> 6.00	> 6.00	–	–
O=S(=O)(c1ccc(NCc2ccc(F)cc2Cl)c2cn[nH]c12)C(F)(F)F [Example 54, N-[(2-chloro-4-fluorophenyl)methyl]-7-(trifluoromethylsulfonyl)-1H-indazol-4-amine]	< 5.00	< 5.00	–	–
N#Cc1cccc(Oc2ccc(S(=O)(=O)C(F)(F)F)c3[nH]nc(Cl)c23)c1 [Example 62, m-[3-Chloro-7-(trifluoromethylsulfonyl)-1H-indazol-4-yloxy]benzonitrile]	< 5.00	> 6.00	–	–
CS(=O)(=O)c1ccc(Oc2ccc(F)cc2F)c2cn[nH]c12 [Example 4, 4-(2,4-Difluorophenoxy)-7-methanesulfonyl-1H-indazole]	< 5.00	< 5.00	–	–
COc1ccc(Oc2ccc(S(=O)(=O)C(F)(F)F)c3[nH]ncc23)cc1 [Example 20, 4-(p-Methoxyphenoxy)-7-(trifluoromethylsulfonyl)-1H-indazole]	< 5.00	< 5.00	–	–
Cc1cc(C#N)cc(Oc2ccc(S(=O)(=O)C(F)(F)F)c3[nH]ncc23)c1 [Example 28, 3-Methyl-5-[[7-(trifluoromethylsulfonyl)-1H-indazol-4-yl]oxy]benzonitrile]	5.00 to 6.00	5.00 to 6.00	–	–
N#Cc1cc(F)cc(Oc2ccc(S(=O)(=O)C(F)(F)F)c3[nH]nc(C#N)c23)c1 [Example 60, 4-(3-Cyano-5-fluorophenoxy)-7-trifluoromethanesulfonyl-1H-indazole-3-carbonitrile]	5.00 to 6.00	< 5.00	–	–
N#Cc1cc(Cl)cc(Oc2ccc(S(=O)(=O)C(F)(F)F)c3[nH]ncc23)c1 [Example 27, 3-Chloro-5-[[7-(trifluoromethylsulfonyl)-1H-indazol-4-yl]oxy]benzonitrile]	5.00 to 6.00	> 6.00	–	–
N#Cc1cc(F)cc(Oc2ccc(S(=O)(=O)C(F)(F)F)c3[nH]ncc23)c1 [Example 15, 3-Fluoro-5-[(7-trifluoromethanesulfonyl-1H-indazol-4-yl)oxy]benzonitrile]	–	–	> 6.00	> 6.00
N#Cc1cncc(Oc2ccc(S(=O)(=O)C(F)(F)F)c3[nH]ncc23)c1 [Example 24, 5-[(7-Trifluoromethanesulfonyl-1H-indazol-4-yl)oxy]pyridine-3-carbonitrile]	5.00 to 6.00	5.00 to 6.00	–	–
O=S(=O)(c1ccc(NCc2ccc(F)cc2C(F)(F)F)c2cn[nH]c12)C(F)(F)F [Example 55, N-[[4-fluoro-2-(trifluoromethyl)phenyl]methyl]-7-(trifluoromethylsulfonyl)-1H-indazol-4-amine]	< 5.00	< 5.00	–	–
CS(=O)(=O)c1ccc(Oc2cc(F)cc(C#N)c2)c2c(Cl)n[nH]c12 [Example 8, 3-[(3-Chloro-7-methanesulfonyl-1H-indazol-4-yl)oxy]-5-fluorobenzonitrile]	5.00 to 6.00	< 5.00	–	–
N#Cc1cc(Nc2ccc(S(=O)(=O)C(F)(F)F)c3[nH]ncc23)ccc1F [Example 48, 2-Fluoro-5-[7-(trifluoromethylsulfonyl)-1H-indazol-4-ylamino]benzonitrile]	< 5.00	< 5.00	–	–
O=S(=O)(c1ccc(Oc2ccccc2)c2cn[nH]c12)C(F)(F)F [Example 16, 4-Phenoxy-7-(trifluoromethylsulfonyl)-1H-indazole]	5.00 to 6.00	< 5.00	–	–
O=S(=O)(c1ccc(NCc2ccccc2)c2cn[nH]c12)C(F)(F)F [Example 51, N-benzyl-7-(trifluoromethylsulfonyl)-1H-indazol-4-amine]	< 5.00	< 5.00	–	–
N#Cc1cc(F)cc(Oc2ccc(S(=O)(=O)C(F)(F)F)c3cn[nH]c23)c1 [Example 70, 3-Fluoro-5-[4-(trifluoromethylsulfonyl)-1H-indazol-7-yloxy]benzonitrile]	5.00 to 6.00	5.00 to 6.00	–	–
CS(=O)(=O)c1ccc(Nc2cc(F)cc(C#N)c2)c2c(F)n[nH]c12 [Example 2, 3-Fluoro-5-[(3-fluoro-7-methanesulfonyl-1H-indazol-4-yl)amino]benzonitrile]	5.00 to 6.00	< 5.00	–	–
N#Cc1cc(F)cc(Oc2ccc(S(=O)(=O)C(F)F)c3[nH]ncc23)c1 [Example 12, 5-[7-(Difluoromethylsulfonyl)-1H-indazol-4-yloxy]-3-fluorobenzonitrile]	5.00 to 6.00	5.00 to 6.00	–	–
O=S(=O)(c1ccc(Oc2cc(Cl)cc(OC(F)(F)F)c2)c2cn[nH]c12)C(F)(F)F [Example 29, 4-[3-Chloro-5-(trifluoromethoxy)phenoxy]-7-(trifluoromethylsulfonyl)-1H-indazole]	< 5.00	< 5.00	–	–
O=S(=O)(c1ccc(NC2CC(F)(F)C2)c2cn[nH]c12)C(F)(F)F [Example 57, N-(3,3-Difluorocyclobutyl)-7-trifluoromethanesulfonyl-1H-indazol-4-amine]	< 5.00	5.00 to 6.00	–	–
O=S(=O)(c1ccc(Cc2cccc(Cl)c2)c2cn[nH]c12)C(F)(F)F [Example 59, 4-[(3-Chlorophenyl)methyl]-7-trifluoromethanesulfonyl-1H-indazole]	5.00 to 6.00	< 5.00	–	–
N#Cc1cc(F)cc(Oc2ccc(S(=O)(=O)C(F)F)c3[nH]nc(I)c23)c1 [Example 13, 5-[7-(Difluoromethylsulfonyl)-3-iodo-1H-indazol-4-yloxy]-3-fluorobenzonitrile]	5.00 to 6.00	< 5.00	–	–
N#Cc1cc(Oc2ccc(S(=O)(=O)C(F)(F)F)c3[nH]ncc23)ccc1F [Example 36, 2-Fluoro-5-[[7-(trifluoromethylsulfonyl)-1H-indazol-4-yl]oxy]benzonitrile]	< 5.00	5.00 to 6.00	–	–
O=S(=O)(c1ccc(Oc2ccc(Cl)c(F)c2)c2cn[nH]c12)C(F)(F)F [Example 33, 4-(4-Chloro-3-fluorophenoxy)-7-(trifluoromethylsulfonyl)-1H-indazole]	< 5.00	< 5.00	–	–
Fc1cc(F)cc(Oc2ccc(C(F)(F)F)c3[nH]ncc23)c1 [Example 26, 4-(3,5-Difluorophenoxy)-7-(trifluoromethyl)-1H-indazole]	5.00 to 6.00	5.00 to 6.00	–	–
N#Cc1ccc(Oc2ccc(S(=O)(=O)C(F)(F)F)c3[nH]ncc23)cc1 [Example 19, p[7-(Trifluoromethylsulfonyl)-1H-indazol-4-yloxy]benzonitrile]	5.00 to 6.00	< 5.00	–	–
